Data as given in ChEMBL document CHEMBL1201862, “PubChem BioAssay data set” (2004).
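Following 48 hours of exposure in 96-well plates, responses at five concentrations were used to interpolate endpoints linearly. Here, GI50 denotes the concentration required for 50% inhibition of growth.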 Active and inactive are the calls of the source. Rule as the data show it: active = GI50 up to about 1.1 µM and inactive = higher.

Key:
Test in all cases: growth of human tumour cells (NCI), 48 h
[1] = tested on: NCI/ADR-RES
[2] = tested on: M14
[3] = tested on: COLO 205
[4] = tested on: T47D
[5] = tested on: DU-145
[6] = tested on: CAKI-1
[7] = tested on: MDA-MB-435
[8] = tested on: MDA-N
[9] = tested on: SW-620
[10] = tested on: BT-549
[11] = tested on: IGROV-1
[12] = tested on: Hs-578T
[13] = tested on: MCF7
[14] = tested on: PC-3
[15] = tested on: SR
[16] = tested on: SF-295
[17] = tested on: OVCAR-5
[18] = tested on: NCI-H522
[19] = tested on: MDA-MB-231

Measured: GI50

O=C(CCc1ccc(O)c(O)c1)OCCc1ccccc1
inactive: [1] > 100 µM | [2] 67.3 µM | [3] 42.7 µM | [4] > 96.4 µM | [5] > 100 µM | [6] 78.3 µM | [7] 20.8 µM | [8] 15.4 µM | [9] 31.1 µM | [10] > 100 µM | [11] 54.1 µM | [12] > 100 µM | [13] > 62.1 µM | [14] > 100 µM | [15] 17.6 µM | [16] > 100 µM | [17] > 100 µM | [18] 3.7 µM | [19] 67.6 µM

Cc1cc(S(=O)(=O)Nc2nncn2-c2ccc(Cl)cc2)c(S)cc1Cl
inactive: [1] > 10 µM | [2] > 10 µM | [3] > 10 µM | [4] > 10 µM | [5] > 10 µM | [6] > 10 µM | [7] > 10 µM | [8] > 10 µM | [9] > 10 µM | [10] > 10 µM | [11] > 10 µM | [12] > 10 µM | [13] > 10 µM | [14] > 10 µM | [16] > 10 µM | [17] > 10 µM | [18] > 10 µM | [19] > 10 µM

CCOC(=O)c1nc2ccc(C(F)(F)F)cc2nc1NCc1ccc(Cl)c(Cl)c1
inactive: [1] 47.1 µM | [2] 36.9 µM | [3] 31.8 µM | [4] 44.5 µM | [6] 24.9 µM | [7] 23.6 µM | [8] 57.4 µM | [9] 40 µM | [10] 37 µM | [11] 20.7 µM | [12] 20.8 µM | [13] 30.4 µM | [14] 22.8 µM | [15] 37.9 µM | [16] 29.8 µM | [17] > 100 µM | [18] 11.4 µM | [19] 30.2 µM

O=C(CC(=O)Nc1ccc(C(=O)O)cc1)Nc1ccc(C(=O)O)cc1
inactive: [1] > 100 µM | [2] > 100 µM | [3] > 100 µM | [4] 49.5 µM | [5] > 100 µM | [6] > 100 µM | [7] > 100 µM | [8] > 100 µM | [9] > 100 µM | [10] > 100 µM | [11] > 100 µM | [12] > 100 µM | [13] > 100 µM | [14] > 100 µM | [15] > 100 µM | [16] > 100 µM | [18] > 100 µM | [19] > 100 µM

CNNC(=NS(=O)(=O)c1cc(C#N)c(NNC)cc1S)NNC
inactive: [1] > 10 µM | [2] > 10 µM | [3] > 10 µM | [4] > 10 µM | [5] > 10 µM | [6] > 10 µM | [8] > 10 µM | [9] > 10 µM | [10] > 10 µM | [11] > 10 µM | [12] > 10 µM | [13] > 10 µM | [14] > 10 µM | [15] > 10 µM | [16] > 10 µM | [17] > 10 µM | [18] > 10 µM

CN(COC(=O)C(C)(C)C)c1nc(N(C)COC(=O)C(C)(C)C)nc(N(C)COC(=O)C(C)(C)C)n1
inactive: [1] 44.3 µM | [2] 19 µM | [3] 16 µM | [4] 56.6 µM | [5] 22.4 µM | [6] 36.7 µM | [8] 25.7 µM | [9] 22 µM | [10] 34.4 µM | [11] > 100 µM | [12] > 100 µM | [13] 33.8 µM | [14] 77.8 µM | [15] 29.1 µM | [16] 94.6 µM | [17] > 100 µM | [18] 77.1 µM | [19] 16.4 µM

Oc1ccccc1C1C=C(c2ccccc2)NC(N2CCCCC2)=C1c1nc2ccccc2[nH]1 (stereo not given)
inactive: [1] 15.8 µM | [2] 13 µM | [3] 2.19 µM | [4] 18.9 µM | [5] 24.2 µM | [7] 15.6 µM | [8] 13.5 µM | [9] 16.3 µM | [10] 15.1 µM | [11] 14.6 µM | [12] 13.4 µM | [13] 12.1 µM | [14] 11.8 µM | [15] 12.4 µM | [16] 15.5 µM | [17] 17.9 µM | [18] 14 µM | [19] 11.9 µM

COc1ccc(-c2c3c([nH]c(=S)c2C#N)CC(C)(C)CC3=O)cc1
inactive: [2] > 100 µM | [4] 59.6 µM | [5] > 100 µM | [6] > 100 µM | [8] > 100 µM | [9] > 100 µM | [10] > 100 µM | [11] > 100 µM | [12] > 100 µM | [13] > 100 µM | [14] > 100 µM | [15] > 100 µM | [16] > 100 µM | [17] > 100 µM | [18] 36.4 µM | [19] > 100 µM

N#Cc1c(Nc2ccc(F)cc2)[n+]([O-])c2ccc(Cl)cc2[n+]1[O-]
inactive: [1] 1.9 µM | [2] 3.36 µM | [3] 1.95 µM | [4] 2.89 µM | [5] 11.8 µM | [6] 3.18 µM | [7] 4.04 µM | [8] 6.73 µM | [9] 3.78 µM | [10] 8.93 µM | [11] 1.33 µM | [12] 38.3 µM | [13] 2.11 µM | [14] 4.81 µM | [15] 1.57 µM | [16] 1.85 µM | [19] 2.66 µM

COc1ccc(-c2cc(=O)c3c(OC)c(O)c(OC)cc3o2)cc1
inactive: [1] 29.1 µM | [2] 58.3 µM | [3] 49 µM | [4] 23.1 µM | [5] 49.3 µM | [6] 85.5 µM | [7] 42.4 µM | [8] 47.3 µM | [9] 54.3 µM | [10] 55.3 µM | [11] 33 µM | [12] 40.4 µM | [13] 42.7 µM | [15] 73.8 µM | [16] 30.8 µM | [17] > 100 µM | [18] 17.9 µM | [19] 23.6 µM

C[C@]12CC[C@H](O[C@@H]3O[C@H](CO[C@@H]4O[C@H](CO)[C@@H](O)[C@H](O)[C@H]4O)[C@@H](O)[C@H](O)[C@H]3O)C[C@@H]1CC[C@@H]1[C@@H]2CC[C@]2(C)[C@@H](C3=CC(=O)OC3)CC[C@]12O [UZARIN]
inactive: [1] 15.4 µM | [2] 24.8 µM | [3] 50.1 µM | [4] 31.1 µM | [5] 13.3 µM | [6] 13.7 µM | [7] 31.8 µM | [8] 29 µM | [9] 31.6 µM | [10] 6.71 µM | [11] 10.7 µM | [12] 19.5 µM | [14] 28.2 µM | [15] 6.25 µM | [16] 17.3 µM | [17] 27.4 µM | [18] 7.91 µM | [19] > 80.2 µM
